From PubChem BioAssay AID2060893 (Molecular Pharmacology Branch, DTP, NCI, 2025)
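Further: spheroids exposed to agents for seven days before readout.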

The molecules below were run on K86415-001-R-J1-PDC complex spheroids, viability (assay: Anticancer human tumor K86415-001-R-J1-PDC patient-derived lung adenocarcinoma cell line growth inhibition [RAS]). Conditions: second compound 0.1 µM; first compound 0.1 µM; hits give low values.
How it was run: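 Multi-cell-type spheroids: tumor cells plus HUVEC endothelial cells and mesenchymal stem cells. RAS-pathway inhibitors were combined with targeted agents, each dosed in half-log steps down from clinical Cmax, or from 10 microM when Cmax was unknown.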
NC1c2ccccc2OC12CCN(c1cnc3c(N4CCCc5ncccc54)n[nH]c3n1)CC2 (stereo unspecified) + C=CC(=O)N1CCN(c2nc(OCC3CCCN3C)nc3c(F)c(-c4nc(N)cc(C)c4C(F)(F)F)c(Cl)cc23)C(C)C1 gave a viability, T/C of 6.03%.

Same assay, conditions: second compound 0.1 µM; first compound 0.316 µM; hits give low values
In the case of CC1(O)CCCC1n1c(=O)c(C(F)F)cc2cnc(NC3CCN(S(C)(=O)=O)CC3)nc21 (stereo unspecified) + C=CC(=O)N1CCN(c2nc(OCC3CCCN3C)nc3c(F)c(-c4nc(N)cc(C)c4C(F)(F)F)c(Cl)cc23)C(C)C1, the viability, T/C is reported as 10.5%.
In the case of CCC(CC)c1cc(NC2CCC(N)C2)n2nccc2n1 (stereo unspecified) + C=CC(=O)N1CCN(c2nc(OCC3CCCN3C)nc3c(F)c(-c4nc(N)cc(C)c4C(F)(F)F)c(Cl)cc23)C(C)C1, the viability, T/C is reported as 12.8%.
CCN1CCN(Cc2ccc(Nc3ncc(F)c(-c4cc(F)c5nc(C)n(C(C)C)c5c4)n3)nc2)CC1 + C=CC(=O)N1CCN(c2nc(OCC3CCCN3C)nc3c(F)c(-c4nc(N)cc(C)c4C(F)(F)F)c(Cl)cc23)C(C)C1 was tested, and the viability, T/C was 10.6%.
Cc1nc(N2CCC3(CC2)COC(C)C3N)c(CO)nc1Sc1ccnc(N)c1Cl (stereo unspecified) + C=CC(=O)N1CCN(c2nc(OCC3CCCN3C)nc3c(F)c(-c4nc(N)cc(C)c4C(F)(F)F)c(Cl)cc23)C(C)C1 was tested, and the viability, T/C was 5.7%.
Molecule NC1c2ccccc2OC12CCN(c1cnc3c(N4CCCc5ncccc54)n[nH]c3n1)CC2 (stereo unspecified) + C=CC(=O)N1CCN(c2nc(OCC3CCCN3C)nc3c(F)c(-c4nc(N)cc(C)c4C(F)(F)F)c(Cl)cc23)C(C)C1 has a viability, T/C of 4.11%.

Same assay, conditions: second compound 0.1 µM; first compound 1 µM; hits give low values
In the case of CC1(O)CCCC1n1c(=O)c(C(F)F)cc2cnc(NC3CCN(S(C)(=O)=O)CC3)nc21 (stereo unspecified) + C=CC(=O)N1CCN(c2nc(OCC3CCCN3C)nc3c(F)c(-c4nc(N)cc(C)c4C(F)(F)F)c(Cl)cc23)C(C)C1, the viability, T/C is reported as 11.5%.
With CCC(CC)c1cc(NC2CCC(N)C2)n2nccc2n1 (stereo unspecified) + C=CC(=O)N1CCN(c2nc(OCC3CCCN3C)nc3c(F)c(-c4nc(N)cc(C)c4C(F)(F)F)c(Cl)cc23)C(C)C1 the viability, T/C was 13.7%.
Molecule CCN1CCN(Cc2ccc(Nc3ncc(F)c(-c4cc(F)c5nc(C)n(C(C)C)c5c4)n3)nc2)CC1 + C=CC(=O)N1CCN(c2nc(OCC3CCCN3C)nc3c(F)c(-c4nc(N)cc(C)c4C(F)(F)F)c(Cl)cc23)C(C)C1 has a viability, T/C of 14.2%.
Cc1nc(N2CCC3(CC2)COC(C)C3N)c(CO)nc1Sc1ccnc(N)c1Cl (stereo unspecified) + C=CC(=O)N1CCN(c2nc(OCC3CCCN3C)nc3c(F)c(-c4nc(N)cc(C)c4C(F)(F)F)c(Cl)cc23)C(C)C1 showed a viability, T/C of 3.75%.
With NC1c2ccccc2OC12CCN(c1cnc3c(N4CCCc5ncccc54)n[nH]c3n1)CC2 (stereo unspecified) + C=CC(=O)N1CCN(c2nc(OCC3CCCN3C)nc3c(F)c(-c4nc(N)cc(C)c4C(F)(F)F)c(Cl)cc23)C(C)C1 the viability, T/C was 3.86%.

Same assay, conditions: second compound 0.1 µM; first compound 3.16 µM; hits give low values
With CC1(O)CCCC1n1c(=O)c(C(F)F)cc2cnc(NC3CCN(S(C)(=O)=O)CC3)nc21 (stereo unspecified) + C=CC(=O)N1CCN(c2nc(OCC3CCCN3C)nc3c(F)c(-c4nc(N)cc(C)c4C(F)(F)F)c(Cl)cc23)C(C)C1 the viability, T/C was 19.4%.
Work on CCC(CC)c1cc(NC2CCC(N)C2)n2nccc2n1 (stereo unspecified) + C=CC(=O)N1CCN(c2nc(OCC3CCCN3C)nc3c(F)c(-c4nc(N)cc(C)c4C(F)(F)F)c(Cl)cc23)C(C)C1 yielded a viability, T/C of 3.12%.
For Cc1nc(N2CCC3(CC2)COC(C)C3N)c(CO)nc1Sc1ccnc(N)c1Cl (stereo unspecified) + C=CC(=O)N1CCN(c2nc(OCC3CCCN3C)nc3c(F)c(-c4nc(N)cc(C)c4C(F)(F)F)c(Cl)cc23)C(C)C1, the viability, T/C was 4.37%.
NC1c2ccccc2OC12CCN(c1cnc3c(N4CCCc5ncccc54)n[nH]c3n1)CC2 (stereo unspecified) + C=CC(=O)N1CCN(c2nc(OCC3CCCN3C)nc3c(F)c(-c4nc(N)cc(C)c4C(F)(F)F)c(Cl)cc23)C(C)C1 was tested, and the viability, T/C was 4.33%.

Same assay, conditions: second compound 0.1 µM; first compound 10 µM; hits give low values
For CC1(O)CCCC1n1c(=O)c(C(F)F)cc2cnc(NC3CCN(S(C)(=O)=O)CC3)nc21 (stereo unspecified) + C=CC(=O)N1CCN(c2nc(OCC3CCCN3C)nc3c(F)c(-c4nc(N)cc(C)c4C(F)(F)F)c(Cl)cc23)C(C)C1, the viability, T/C was 4.11%.
CCC(CC)c1cc(NC2CCC(N)C2)n2nccc2n1 (stereo unspecified) + C=CC(=O)N1CCN(c2nc(OCC3CCCN3C)nc3c(F)c(-c4nc(N)cc(C)c4C(F)(F)F)c(Cl)cc23)C(C)C1 showed a viability, T/C of 2.45%.
Cc1nc(N2CCC3(CC2)COC(C)C3N)c(CO)nc1Sc1ccnc(N)c1Cl (stereo unspecified) + C=CC(=O)N1CCN(c2nc(OCC3CCCN3C)nc3c(F)c(-c4nc(N)cc(C)c4C(F)(F)F)c(Cl)cc23)C(C)C1 was tested, and the viability, T/C was 3.87%.
For NC1c2ccccc2OC12CCN(c1cnc3c(N4CCCc5ncccc54)n[nH]c3n1)CC2 (stereo unspecified) + C=CC(=O)N1CCN(c2nc(OCC3CCCN3C)nc3c(F)c(-c4nc(N)cc(C)c4C(F)(F)F)c(Cl)cc23)C(C)C1, the viability, T/C was 4.71%.

Same assay, conditions: second compound 0.316 µM; first compound 0.00316 µM; hits give low values
CCN1CCN(Cc2ccc(Nc3ncc(F)c(-c4cc(F)c5nc(C)n(C(C)C)c5c4)n3)nc2)CC1 + C=CC(=O)N1CCN(c2nc(OCC3CCCN3C)nc3c(F)c(-c4nc(N)cc(C)c4C(F)(F)F)c(Cl)cc23)C(C)C1 showed a viability, T/C of 9.47%.

Same assay, conditions: second compound 0.316 µM; first compound 0.01 µM; hits give low values
CCN1CCN(Cc2ccc(Nc3ncc(F)c(-c4cc(F)c5nc(C)n(C(C)C)c5c4)n3)nc2)CC1 + C=CC(=O)N1CCN(c2nc(OCC3CCCN3C)nc3c(F)c(-c4nc(N)cc(C)c4C(F)(F)F)c(Cl)cc23)C(C)C1 showed a viability, T/C of 8.55%.

Same assay, conditions: second compound 0.316 µM; first compound 0.0316 µM; hits give low values
CC1(O)CCCC1n1c(=O)c(C(F)F)cc2cnc(NC3CCN(S(C)(=O)=O)CC3)nc21 (stereo unspecified) + C=CC(=O)N1CCN(c2nc(OCC3CCCN3C)nc3c(F)c(-c4nc(N)cc(C)c4C(F)(F)F)c(Cl)cc23)C(C)C1 gave a viability, T/C of 11.4%.
CCC(CC)c1cc(NC2CCC(N)C2)n2nccc2n1 (stereo unspecified) + C=CC(=O)N1CCN(c2nc(OCC3CCCN3C)nc3c(F)c(-c4nc(N)cc(C)c4C(F)(F)F)c(Cl)cc23)C(C)C1 showed a viability, T/C of 11.8%.
For CCN1CCN(Cc2ccc(Nc3ncc(F)c(-c4cc(F)c5nc(C)n(C(C)C)c5c4)n3)nc2)CC1 + C=CC(=O)N1CCN(c2nc(OCC3CCCN3C)nc3c(F)c(-c4nc(N)cc(C)c4C(F)(F)F)c(Cl)cc23)C(C)C1, the viability, T/C was 9.15%.
For Cc1nc(N2CCC3(CC2)COC(C)C3N)c(CO)nc1Sc1ccnc(N)c1Cl (stereo unspecified) + C=CC(=O)N1CCN(c2nc(OCC3CCCN3C)nc3c(F)c(-c4nc(N)cc(C)c4C(F)(F)F)c(Cl)cc23)C(C)C1, the viability, T/C was 7.37%.
NC1c2ccccc2OC12CCN(c1cnc3c(N4CCCc5ncccc54)n[nH]c3n1)CC2 (stereo unspecified) + C=CC(=O)N1CCN(c2nc(OCC3CCCN3C)nc3c(F)c(-c4nc(N)cc(C)c4C(F)(F)F)c(Cl)cc23)C(C)C1 gave a viability, T/C of 6.32%.
